Source: the NIST ThermoML archive (doi:10.1016/j.jct.2017.04.009)

Assay: xn = mol fraction of the nth substance listed
Conditions: Liquid, pressure decay method

Work on `CCCCCCn1cc[n+](C)c1.O=S(=O)([O-])C(F)(F)F` [1-hexyl-3-methylimidazolium trifluoromethanesulfonate] + FCF yielded a binary diffusion coefficient (303.2 K, 98.2 kPa, x2 = 0) of 3.01e-10 m2/s, a binary diffusion coefficient (313.2 K, 102 kPa, x2 = 0) of 4.27e-10 m2/s and a binary diffusion coefficient (323.2 K, 99.3 kPa, x2 = 0) of 5.35e-10 m2/s. For the same molecule, the binary diffusion coefficient (333.2 K, 100.2 kPa, x2 = 0) was 6.82e-10 m2/s and the binary diffusion coefficient (343.2 K, 100.4 kPa, x2 = 0) was 8.35e-10 m2/s.

In the case of `CC(F)F` [1,1-difluoroethane] + CCCCCC[n+]1ccn(C)c1.O=S(=O)([N-]S(=O)(=O)C(F)(F)F)C(F)(F)F, the binary diffusion coefficient (303.2 K, 87.7 kPa, x1 = 0) is reported as 9.9e-11 m2/s, the binary diffusion coefficient (313.2 K, 89.1 kPa, x1 = 0) is reported as 1.41e-10 m2/s and the binary diffusion coefficient (323.2 K, 92.5 kPa, x1 = 0) is reported as 2.02e-10 m2/s. For the same molecule, the binary diffusion coefficient (333.2 K, 96.4 kPa, x1 = 0) was 2.61e-10 m2/s and the binary diffusion coefficient (343.2 K, 93.8 kPa, x1 = 0) was 3.16e-10 m2/s.

`CCF` [fluoroethane] + CCCCCCn1cc[n+](C)c1.F[B-](F)(F)F showed a binary diffusion coefficient (303.2 K, 101 kPa, x1 = 0) of 1.23e-10 m2/s, a binary diffusion coefficient (313.2 K, 97.7 kPa, x1 = 0) of 1.91e-10 m2/s and a binary diffusion coefficient (323.2 K, 104.5 kPa, x1 = 0) of 2.54e-10 m2/s. The binary diffusion coefficient (333.2 K, 102.4 kPa, x1 = 0) was 3.36e-10 m2/s and the binary diffusion coefficient (343.2 K, 101.6 kPa, x1 = 0) was 4.2e-10 m2/s.

`CCCCCC[n+]1ccn(C)c1.O=S(=O)([N-]S(=O)(=O)C(F)(F)F)C(F)(F)F` + O=C=O gave a binary diffusion coefficient (283.2 K, 91.5 kPa, x2 = 0) of 2.64e-10 m2/s, a binary diffusion coefficient (298.2 K, 99.7 kPa, x2 = 0) of 3.89e-10 m2/s and a binary diffusion coefficient (313.2 K, 103.4 kPa, x2 = 0) of 5.97e-10 m2/s.

In the case of `CCF` [fluoroethane] + CCCCCC[n+]1ccn(C)c1.O=S(=O)([N-]S(=O)(=O)C(F)(F)F)C(F)(F)F, the binary diffusion coefficient (303.2 K, 90.2 kPa, x1 = 0) is reported as 1.28e-10 m2/s, the binary diffusion coefficient (313.2 K, 91.1 kPa, x1 = 0) is reported as 2.08e-10 m2/s and the binary diffusion coefficient (323.2 K, 93.4 kPa, x1 = 0) is reported as 2.96e-10 m2/s. The binary diffusion coefficient (333.2 K, 93 kPa, x1 = 0) was 3.46e-10 m2/s and the binary diffusion coefficient (343.2 K, 92.5 kPa, x1 = 0) was 4.13e-10 m2/s.

`CC(F)(F)F` [1,1,1-trifluoroethane] + CCCCCC[n+]1ccn(C)c1.O=S(=O)([N-]S(=O)(=O)C(F)(F)F)C(F)(F)F gave a binary diffusion coefficient (303.2 K, 104 kPa, x1 = 0) of 1.84e-10 m2/s, a binary diffusion coefficient (313.2 K, 98.7 kPa, x1 = 0) of 2.4e-10 m2/s and a binary diffusion coefficient (323.2 K, 99.5 kPa, x1 = 0) of 3.35e-10 m2/s. The binary diffusion coefficient (333.2 K, 102.6 kPa, x1 = 0) was 3.97e-10 m2/s and the binary diffusion coefficient (343.2 K, 99.7 kPa, x1 = 0) was 5.1e-10 m2/s.

`CCCCCCn1cc[n+](C)c1.O=S(=O)([O-])C(F)(F)F` [1-hexyl-3-methylimidazolium trifluoromethanesulfonate] + CCF showed a binary diffusion coefficient (303.2 K, 94.5 kPa, x2 = 0) of 2.08e-10 m2/s, a binary diffusion coefficient (313.2 K, 103.8 kPa, x2 = 0) of 2.75e-10 m2/s and a binary diffusion coefficient (323.2 K, 97 kPa, x2 = 0) of 3.68e-10 m2/s. For the same molecule, the binary diffusion coefficient (333.2 K, 94.4 kPa, x2 = 0) was 4.76e-10 m2/s and the binary diffusion coefficient (343.2 K, 98.1 kPa, x2 = 0) was 5.91e-10 m2/s.

`FC(F)C(F)(F)F` [pentafluoroethane] + CCCCCC[n+]1ccn(C)c1.O=S(=O)([N-]S(=O)(=O)C(F)(F)F)C(F)(F)F gave a binary diffusion coefficient (303.2 K, 93.2 kPa, x1 = 0) of 1.02e-10 m2/s, a binary diffusion coefficient (313.2 K, 94.5 kPa, x1 = 0) of 1.48e-10 m2/s and a binary diffusion coefficient (323.2 K, 95.6 kPa, x1 = 0) of 2.24e-10 m2/s. It also gave a binary diffusion coefficient (333.2 K, 95.7 kPa, x1 = 0) of 3.13e-10 m2/s and a binary diffusion coefficient (343.2 K, 100.2 kPa, x1 = 0) of 4.21e-10 m2/s.

`CCCCCCn1cc[n+](C)c1.F[B-](F)(F)F` [1-hexyl-3-methylimidazolium tetrafluoroborate] + FCF showed a binary diffusion coefficient (303.2 K, 95.7 kPa, x2 = 0) of 1.29e-10 m2/s, a binary diffusion coefficient (313.2 K, 102 kPa, x2 = 0) of 1.8e-10 m2/s and a binary diffusion coefficient (323.2 K, 99.1 kPa, x2 = 0) of 2.55e-10 m2/s. For the same molecule, the binary diffusion coefficient (333.2 K, 103.5 kPa, x2 = 0) was 3.57e-10 m2/s and the binary diffusion coefficient (343.2 K, 99.9 kPa, x2 = 0) was 4.76e-10 m2/s.

For `FC(F)C(F)(F)F` [pentafluoroethane] + CCCCCCn1cc[n+](C)c1.F[B-](F)(F)F, the binary diffusion coefficient (303.2 K, 151.8 kPa, x1 = 0) was 6.3e-11 m2/s, the binary diffusion coefficient (313.2 K, 164 kPa, x1 = 0) was 1.24e-10 m2/s and the binary diffusion coefficient (323.2 K, 169.7 kPa, x1 = 0) was 2.16e-10 m2/s. It also gave a binary diffusion coefficient (333.2 K, 176.2 kPa, x1 = 0) of 2.95e-10 m2/s and a binary diffusion coefficient (343.2 K, 172.3 kPa, x1 = 0) of 3.66e-10 m2/s.

Work on `CCCCCCn1cc[n+](C)c1.O=S(=O)([O-])C(F)(F)F` [1-hexyl-3-methylimidazolium trifluoromethanesulfonate] + CC(F)F yielded a binary diffusion coefficient (303.2 K, 86.8 kPa, x2 = 0) of 1.48e-10 m2/s, a binary diffusion coefficient (313.2 K, 95.7 kPa, x2 = 0) of 2.13e-10 m2/s and a binary diffusion coefficient (323.2 K, 98 kPa, x2 = 0) of 2.82e-10 m2/s. It also gave a binary diffusion coefficient (333.2 K, 101.9 kPa, x2 = 0) of 3.79e-10 m2/s and a binary diffusion coefficient (343.2 K, 99.1 kPa, x2 = 0) of 4.73e-10 m2/s.

`FCF` [difluoromethane] + CCCCCC[n+]1ccn(C)c1.O=S(=O)([N-]S(=O)(=O)C(F)(F)F)C(F)(F)F showed a binary diffusion coefficient (303.2 K, 92.8 kPa, x1 = 0) of 1.55e-10 m2/s, a binary diffusion coefficient (313.2 K, 93.9 kPa, x1 = 0) of 2.15e-10 m2/s and a binary diffusion coefficient (323.2 K, 94.4 kPa, x1 = 0) of 2.77e-10 m2/s. The binary diffusion coefficient (333.2 K, 94.3 kPa, x1 = 0) was 3.68e-10 m2/s and the binary diffusion coefficient (343.2 K, 95.2 kPa, x1 = 0) was 4.78e-10 m2/s.

`C=C(F)C(F)(F)F` [2,3,3,3-tetrafluoro-1-propene] + CCCCCC[n+]1ccn(C)c1.O=S(=O)([N-]S(=O)(=O)C(F)(F)F)C(F)(F)F gave a binary diffusion coefficient (303.2 K, 96.7 kPa, x1 = 0) of 1.39e-10 m2/s, a binary diffusion coefficient (313.2 K, 95.6 kPa, x1 = 0) of 1.99e-10 m2/s and a binary diffusion coefficient (323.2 K, 97.7 kPa, x1 = 0) of 2.75e-10 m2/s. For the same molecule, the binary diffusion coefficient (333.2 K, 98.3 kPa, x1 = 0) was 4.01e-10 m2/s and the binary diffusion coefficient (343.2 K, 102.9 kPa, x1 = 0) was 5.96e-10 m2/s.

`CC(F)(F)F` [1,1,1-trifluoroethane] + CCCCCCn1cc[n+](C)c1.F[B-](F)(F)F gave a binary diffusion coefficient (303.2 K, 149.1 kPa, x1 = 0) of 7.7e-11 m2/s, a binary diffusion coefficient (313.2 K, 159.2 kPa, x1 = 0) of 1.15e-10 m2/s and a binary diffusion coefficient (323.2 K, 173.5 kPa, x1 = 0) of 1.89e-10 m2/s. It also gave a binary diffusion coefficient (333.2 K, 187.6 kPa, x1 = 0) of 2.62e-10 m2/s and a binary diffusion coefficient (343.2 K, 189 kPa, x1 = 0) of 3.39e-10 m2/s.

For `CC(F)F` [1,1-difluoroethane] + CCCCCCn1cc[n+](C)c1.F[B-](F)(F)F, the binary diffusion coefficient (303.2 K, 95.1 kPa, x1 = 0) was 7.4e-11 m2/s, the binary diffusion coefficient (313.2 K, 101.6 kPa, x1 = 0) was 1.07e-10 m2/s and the binary diffusion coefficient (323.2 K, 102 kPa, x1 = 0) was 1.59e-10 m2/s. It also gave a binary diffusion coefficient (333.2 K, 97.8 kPa, x1 = 0) of 2.07e-10 m2/s and a binary diffusion coefficient (343.2 K, 98.5 kPa, x1 = 0) of 2.56e-10 m2/s.

`CCCCCCn1cc[n+](C)c1.O=S(=O)([O-])C(F)(F)F` [1-hexyl-3-methylimidazolium trifluoromethanesulfonate] + C=C(F)C(F)(F)F showed a binary diffusion coefficient (303.2 K, 104.3 kPa, x2 = 0) of 1.46e-10 m2/s, a binary diffusion coefficient (313.2 K, 101.6 kPa, x2 = 0) of 2e-10 m2/s and a binary diffusion coefficient (323.2 K, 106.7 kPa, x2 = 0) of 2.66e-10 m2/s. The binary diffusion coefficient (333.2 K, 100.8 kPa, x2 = 0) was 3.76e-10 m2/s and the binary diffusion coefficient (343.2 K, 109 kPa, x2 = 0) was 4.97e-10 m2/s.

Molecule `C=C(F)C(F)(F)F` [2,3,3,3-tetrafluoro-1-propene] + CCCCCCn1cc[n+](C)c1.F[B-](F)(F)F has a binary diffusion coefficient (303.2 K, 158.3 kPa, x1 = 0) of 6.9e-11 m2/s, a binary diffusion coefficient (313.2 K, 168.4 kPa, x1 = 0) of 1.02e-10 m2/s and a binary diffusion coefficient (323.2 K, 170 kPa, x1 = 0) of 1.59e-10 m2/s. For the same molecule, the binary diffusion coefficient (333.2 K, 185.3 kPa, x1 = 0) was 2.47e-10 m2/s and the binary diffusion coefficient (343.2 K, 189 kPa, x1 = 0) was 3.59e-10 m2/s.

Molecule `CCCCCCn1cc[n+](C)c1.O=S(=O)([O-])C(F)(F)F` [1-hexyl-3-methylimidazolium trifluoromethanesulfonate] + CC(F)(F)F has a binary diffusion coefficient (303.2 K, 97.3 kPa, x2 = 0) of 1.96e-10 m2/s, a binary diffusion coefficient (313.2 K, 110.5 kPa, x2 = 0) of 2.61e-10 m2/s and a binary diffusion coefficient (323.2 K, 105.4 kPa, x2 = 0) of 3.48e-10 m2/s. For the same molecule, the binary diffusion coefficient (333.2 K, 108.8 kPa, x2 = 0) was 4.58e-10 m2/s and the binary diffusion coefficient (343.2 K, 106.3 kPa, x2 = 0) was 6.13e-10 m2/s.
